Measured values: paper PMC9426601 (mBio, 2022)
Read-outs that look alike come from different tables or passages of the source.

Legend:
[1] = tested on: A(H1N1pdm09)-PA/E23K; assay type: cell-based, influenza A(H1N1pdm09) virus
[2] = tested on: A(H3N2)-PA/I38T; assay type: cell-based, influenza A(H3N2) virus
[3] = tested on: A(H1N1pdm09) 100% PA/E23K; design: species or system ferrets (Mustela putorius furo); AUC (area under the curve of nasal wash viral titer): unit not given beside the values; conditions: in vivo
[4] = tested on: A(H1N1pdm09)-PA/E23K; assay type: cell-based, influenza A(H1N1pdm09) virus; remark: listed apart in the source
[5] = tested on: A(H3N2)-PA/I38T; assay type: cell-based, influenza A(H3N2) virus; remark: listed apart in the source
[6] = tested on: A(H3N2) 80% WT: 20% PA/I38T; design: species or system ferrets (Mustela putorius furo); AUC (area under the curve of nasal wash viral titer): unit not given beside the values; conditions: in vivo
[7] = tested on: A(H3N2) 100% PA/I38T; design: species or system ferrets (Mustela putorius furo); AUC (area under the curve of nasal wash viral titer): unit not given beside the values; conditions: in vivo
[8] = tested on: A(H1N1pdm09) 80% WT: 20% PA/E23K; design: species or system ferrets (Mustela putorius furo); AUC (area under the curve of nasal wash viral titer): unit not given beside the values; conditions: in vivo
[9] = target: NA activity of A(H3N2)-PA/I38T (Influenza A virus, UniProt P06818); assay type: biochemical
[10] = target: NA activity of A(H1N1pdm09)-PA/E23K (Influenza A virus, UniProt C7FH46); assay type: biochemical; conditions: read-out: IC50 (nM), neuraminidase inhibitor
[11] = read-out: Baloxavir EC50 (nM) FRA
[12] = read-out: Baloxavir EC50 (nM) YRA
[13] = read-out: Oseltamivir IC50 (nM) YRA

O=C1c2c(O)c(=O)ccn2N([C@@H]2c3ccccc3SCc3c2ccc(F)c3F)[C@@H]2COCCN12 [Baloxavir, baloxavir acid]
fold higher EC50 compared to the corresponding pretreatment virus, FRA [1]: 17 fold | EC50 [1, 11]: 20.8 ± 10.2 nM | fold higher EC50 compared to the corresponding pretreatment virus, FRA [2]: 77 fold | EC50 [2, 11]: 46 ± 6.9 nM | AUC (area under the curve of nasal wash viral titer) [3]: 28.6 ± 0.8 | Duration of viral shedding [3]: 6.3 ± 0.5 days | rapid reduction in viral load in the first 24 h following treatment [3]: not observed | reduction in AUC relative to placebo [3]: no significant difference | fold increase in EC50 compared to the corresponding WT, YRA [4]: 9 fold | EC50 [4, 12]: 2.6 ± 0.07 nM | fold increase in EC50 compared to the corresponding WT, YRA [5]: 100 fold | EC50 [5, 12]: 40.1 ± 15.6 nM | AUC (area under the curve of nasal wash viral titer) [6]: 18.6 ± 1.4 | Duration of viral shedding [6]: 4.7 ± 0.5 days | AUC (area under the curve of nasal wash viral titer) [7]: 23.4 ± 1.4 | Duration of viral shedding [7]: 5.7 ± 0.5 days | reduction in AUC relative to placebo [7]: 10% | reduction in viral shedding relative to placebo [7]: 0.6 days | AUC (area under the curve of nasal wash viral titer) [8]: 24.7 ± 2.4 | Duration of viral shedding [8]: 5.3 ± 0.5 days | reduction in AUC relative to placebo [8]: 6%

CCOC(=O)C1=C[C@@H](OC(CC)CC)[C@H](NC(C)=O)[C@@H](N)C1 [Oseltamivir, oseltamivir]
IC50 ([9]; read-out: Oseltamivir IC50 (nM) NIA): 0.15 ± 0.11 nM | AUC (area under the curve of nasal wash viral titer) [3]: 26.2 ± 1.3 | Duration of viral shedding [3]: […] | IC50 [4, 13]: […] | IC50 [5, 13]: […] | AUC (area under the curve of nasal wash viral titer) [6]: 19.3 ± 1.8 | Duration of viral shedding [6]: […] | Duration of viral shedding [7]: […] | AUC (area under the curve of nasal wash viral titer) [8]: 26.9 ± 1.7 | AUC greater than placebo [8]: 7% | Duration of viral shedding [8]: […]

CCC(CC)[C@H](NC(C)=O)[C@@H]1[C@H](O)[C@@H](C(=O)O)C[C@H]1N=C(N)N [Peramivir]
IC50 ([9]; read-out: IC50 (nM), neuraminidase inhibitor): 0.12 ± 0.1 nM | IC50 [10]: 0.17 ± 0.01 nM
